{
  "source": "patent US10759831B2",
  "about": "“Peptide compound, production method therefor, and use thereof” (iNtRON Biotechnology, Inc., priority 2014, dated 2020)",
  "key": {"[1]": {"test_system": "colon cancer cell line HCT15", "assay": "SRB cell viability assay, colon cancer cell line HCT15", "assay_type": "cell-based", "details": "Homo sapiens, HCT-15, read-out: Growth inhibition value of cancer cell (IC50)", "method": "(§1) In detail, 190 μl of a cell suspension at a concentration of 3.5×10^4 cells/ml was inoculated in each well of a 96-well microplate. 0.8 μM, 4 μM, 20 μM, or 100 μM of Asperphenin was added to the cell culture medium, and cultured at a temperature of 37° C. for 72 hours under the condition of 5% CO2. After incubation, 50 μl of 50% (v/v) trichloroacetic acid solution (Sigma Aldrich) was added to each well, and then, incubated at a temperature of 4° C. for 30 minutes, to thereby fix the cells thereto. The fixed cells were washed with water five times, and then, dried in the air.\n(§2) Next, 80 μl of a 0.4% (w/v) SRB aqueous solution (Sigma Aldrich) containing 1% (v/v) acetic acid (DUKSAN) was added to each well, incubated at room temperature for 1 hour to stain cells therein, and the stained cells washed with water and dried. The cells were dissolved by adding 200 μl of 10 mM Tris (pH 10.0) (Sigma Aldrich) to each well, and then, the number of living cells was calculated by measuring the absorbance thereof at 515 nm. […]\n(§3) From the colon cancer cell lines HCT116 (ATCC), HCT15 (Korean Cell Line Bank), LS174T (Korean Cell Line Bank), RKO(ATCC), and SW480(ATCC), cell growth inhibition concentrations (IC50, μM) were calculated as described in Example 2-1, and the results are shown in Table 4. […]"}, "RKO cells [2]": {"test_system": "RKO cells", "assay": "Tumor xenograft mouse model, RKO human colon cancer cell line", "assay_type": "in vivo", "details": "nude mouse; for Tumor growth inhibition ratio: 21 days", "method": "The anticancer effect of […] was verified in a tumor xenograft mouse model to which human colon cancer cell line was transplanted. In detail, RKO cells were subcutaneously injected at a concentration of 3.5×10^6 cells/150 μl into the right side of a nude mouse (Central Lab. Aminol Inc., hairless and small mouse that was tymus free and had dried beard at birth). […] The tumor size was measured by using a digital caliper for 21 days at intervals of 3 to 4 days. Here, as a control, a nude mouse to which […] was not administered was used (n=5)."}, "[3]": {"test_system": "colon cancer cell line RKO", "assay": "SRB cell viability assay, colon cancer cell line RKO", "assay_type": "cell-based", "details": "Homo sapiens, read-out: Growth inhibition value of cancer cell (IC50)", "method": "as §1, §2, §3"}, "RKO cells [4]": {"test_system": "RKO cells", "assay": "Annexin V-FITC/PI apoptosis measurement by flow cytometry", "assay_type": "cell-based, human", "details": "48 hours, 0.625-10 μM, FIG. 4", "method": "The process of apoptosis in the cell line RKO by Asperphenin B was confirmed using a Annexin V-FITC apoptosis measuring kit (manufactured by D Pharmingen).\nAs described in Example 2-3, Asperphenin B at the concentration of 0.625 μM, 1.25 μM, 2.5 μM, 5 μM, or 10 μM was added to the RKO cells, cultured for 48 hours to obtain cells. 300 μl of 1× binding buffer was added to the obtained cells, and well mixed together. Then, 5 μl of Annexin V and 5 μl of PI were added to 100 μl of the cell mixture, and allowed to react at room temperature for 15 minutes in the shaded stated. 400 μl of 1× binding buffer was added to the reactants, a FACSCalibur flow cytometer (BD FACSCalibur, BD Biosciences) was used to analyze the cell apoptosis. Based on the flow cytometry results, ratios of cells that were not stained (i.e., living cells), cells stained with annexin V (i.e., cells apoptosized at the early state), cells stained with both PI and annexin V (i.e., cells apoptosized at the late state or cells necrotized), or cells stained with PI only (i.e., cells necrotized) were calculated. As a negative control, cells to which Asperphenin B was not added were used."}},
  "data": [
    {"smiles": "CCCCCCCCC[C@@H](O)CC(=O)N[C@@H](CC(N)=O)C(=O)N[C@@H](CCC(N)=O)C(=O)N[C@H](CC(=O)c1cc(C)cc(O)c1C(=O)c1c(O)cccc1O)CC(C)C", "note": "[Asperphenin B]", "values": [
      {"measurement": "IC50", "setting": "[1]", "result": 7.2, "unit": "µM"},
      {"measurement": "Tumor growth inhibition ratio", "setting": "RKO cells [2]; 4 mg/kg intraperitoneally 3 times a week", "result": 38.9, "unit": "%"},
      {"measurement": "Inhibition of tumor growth", "setting": "RKO cells [2]; 4 mg/kg or 8 mg/kg", "result": "observed in a compound concentration-dependent manner"},
      {"measurement": "Tumor growth inhibition ratio", "setting": "RKO cells [2]; 8 mg/kg intraperitoneally 3 times a week", "result": 68.7, "unit": "%"},
      {"measurement": "IC50", "setting": "[3]", "result": 1170, "unit": "nM"},
      {"measurement": "Ratio of necrotic cells compared to control", "setting": "RKO cells [4]", "result": "increased"},
      {"measurement": "Ratios of cells of early apoptosis and cells of late apoptosis or necrosis compared to control", "setting": "RKO cells [4]", "result": "increased"}
    ]}
  ]
}
